Measured values: PubChem BioAssay (NCI)
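Assay format: 96-well plates, 48-hour exposure. GI50 = concentration required for 50% inhibition of growth. TGI is the concentration that stops growth completely.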

What was measured:
Assay in all cases: growth of human tumour cells (NCI), 48 h
NCI/ADR-RES ovarian = test system: NCI/ADR-RES ovarian
IGROV1 ovarian = test system: IGROV1 ovarian
NCI-H226 lung = test system: NCI-H226 lung
HL-60(TB) leukemia = test system: HL-60(TB) leukemia
HCT-15 colon = test system: HCT-15 colon
MDA-MB-231 breast = test system: MDA-MB-231 breast
SN12C renal = test system: SN12C renal
HCT-116 colon = test system: HCT-116 colon
SW-620 colon = test system: SW-620 colon
ACHN renal = test system: ACHN renal

| Structure (SMILES) | TGI (NCI/ADR-RES ovarian) [µM] | TGI (IGROV1 ovarian) [µM] | TGI (NCI-H226 lung) [µM] | TGI (HL-60(TB) leukemia) [µM] | TGI (HCT-15 colon) [µM] | TGI (MDA-MB-231 breast) [µM] | TGI (SN12C renal) [µM] | TGI (HCT-116 colon) [µM] | TGI (SW-620 colon) [µM] | TGI (ACHN renal) [µM] | GI50 (NCI/ADR-RES ovarian) [nM] | GI50 (NCI-H226 lung) [nM] | GI50 (HL-60(TB) leukemia) [nM] | GI50 (HCT-15 colon) [nM] | GI50 (MDA-MB-231 breast) [nM] | GI50 (SN12C renal) [nM] | GI50 (ACHN renal) [nM] | GI50 (HCT-116 colon) [nM] | GI50 (SW-620 colon) [nM] | GI50 (IGROV1 ovarian) [nM] |
| --- | --- | --- | --- | --- | --- | --- | --- | --- | --- | --- | --- | --- | --- | --- | --- | --- | --- | --- | --- | --- |
| OCC1NC(CO)C(O)C1O (configuration not stated) | > 100 | > 100 | > 100 | > 100 | > 100 | > 100 | > 100 | > 100 | > 100 | – | – | – | – | – | – | – | – | – | – | – |
| C=C(CN(C)C)C(=O)c1ccccc1 | > 100 | 36.3 | 36 | > 20.8 | 28 | 31.4 | 38.7 | 16.7 | 5.07 | 7.32 | – | – | – | – | – | – | – | – | – | – |
| O=S1(=O)C[C@H](NCc2ccccc2)[C@H](NCc2ccccc2)C1 | > 100 | > 100 | > 100 | – | – | > 100 | > 100 | > 100 | > 100 | > 100 | – | – | – | – | – | – | – | – | – | – |
| CCOP(=O)(OCC)C(Cc1c[nH]c2ccccc12)C(=O)O (configuration not stated) | > 100 | > 100 | > 100 | > 100 | > 100 | > 100 | > 100 | > 100 | > 100 | > 100 | – | – | – | – | – | – | – | – | – | – |
| C[n+]1c(-c2ccc(/C=N\Nc3ccnc(N/N=C/c4ccc(-c5cn6ccsc6[n+]5C)cc4)n3)cc2)cn2ccsc21 | > 100 | 65.4 | 66.7 | 57.4 | > 100 | 67.3 | > 100 | – | > 100 | > 100 | – | – | – | – | – | – | – | – | – | – |
| COc1ccc(CCn2ccc(C)n2)c(OC)c1 | > 100 | > 100 | – | – | > 100 | > 100 | > 100 | > 100 | > 100 | > 100 | – | – | – | – | – | – | – | – | – | – |
| Nc1ccc(C2(c3ccc(N)cc3)C3CC4CC(C3)CC2C4)cc1 | 23.4 | 24.1 | 45.1 | 46.6 | 37.2 | 37.5 | 45.7 | 42.1 | 28.8 | 32.7 | – | – | – | – | – | – | – | – | – | – |
| CC(C)N(CCNc1nc(C(Cl)(Cl)Cl)nc2cc(Cl)ccc12)C(C)C | 3.39 | – | 3.57 | 3.6 | 2.48 | 2.46 | 3.76 | 2.66 | 3.09 | 2.66 | 1540 | 1680 | 1520 | 1120 | 1100 | 1690 | 1290 | 1310 | 1480 | – |
| Nc1nc(N)c(N=Nc2ccccc2)c(=O)[nH]1 | – | > 100 | > 100 | > 100 | > 100 | – | > 100 | > 100 | > 100 | 96.7 | – | – | – | – | – | – | – | – | – | – |
| Cc1ccc(S(=O)(=O)NCCCSCCN)cc1 | > 100 | – | > 100 | > 100 | > 100 | > 100 | > 100 | > 100 | > 100 | > 100 | – | – | – | – | – | – | – | – | – | – |
| CC(=O)OC/C=C\Cn1ncc(=O)[nH]c1=O | 50.6 | 42.5 | 36 | 30.1 | 37.5 | 68 | 42 | – | 40.5 | 43.8 | – | – | – | – | – | – | – | – | – | – |
| CC=C/C=C/[C@@H]1O[C@](O)([C@H](CC)C(=O)NC/C=C/C=C(\C)[C@@H](OC)[C@@H](C)[C@@H]2O[C@H](/C=C/C=C/C=C(\C)C(=O)c3c(O)cc[nH]c3=O)[C@H](O)[C@@H]2O)[C@H](O)[C@H](O)C1(C)C | > 100 | > 100 | – | > 100 | > 100 | – | – | – | > 100 | > 100 | – | – | – | – | – | – | – | – | – | – |
| COc1ccc(/C=C/c2cc(O)cc(OC3OC(CO)C(O)C(O)C3O)c2)cc1O (configuration not stated) | > 100 | > 100 | > 100 | > 100 | > 100 | > 100 | > 100 | > 100 | > 100 | > 100 | – | – | – | – | – | – | – | – | – | – |
| CC(O)C1(O)C(O)CC(OC2c3cc4c(c(O)c3[C@@H]3C[C@@]2(C)OC32C=c3cc[nH]c3=N2)C(=O)c2cccc(O)c2C4=O)OC1C (some centres not stated) | 18 | 3.22 | 3.17 | 3.07 | 6.41 | 3.89 | 1.13 | 3.31 | 5.96 | 4.04 | – | – | – | – | – | – | – | – | – | – |
| O=C(Nc1ccc(C(F)(F)F)cc1[N+](=O)[O-])C(=O)Nn1c(=S)[nH]c2ccccc2c1=O | – | > 100 | > 100 | > 100 | > 100 | – | > 100 | > 100 | > 100 | > 100 | – | – | – | – | – | – | – | – | – | – |
| O=Nn1c2ccccc2c2ccccc21 | > 100 | > 100 | > 100 | > 100 | > 100 | > 100 | > 100 | > 100 | > 100 | > 100 | – | – | – | – | – | – | – | – | – | – |
| CCOC(=O)CCCc1cc(=O)c2c(C)c3[nH]c4ccc(Cl)cc4c3c(C)c2[nH]1 | 66.2 | 86.4 | 61 | 82.3 | > 100 | 69.7 | 95.3 | > 100 | > 100 | 80.3 | – | – | – | – | – | – | – | – | – | – |
| Fc1ccc(C2CC(c3cccc(Nc4ccncc4)c3)=NN2c2ccccc2)cc1 (configuration not stated) | 3.13 | 3.49 | 8.78 | 4.49 | 3.49 | 2.95 | 3.21 | 3.12 | 3.21 | 3.11 | 1650 | 2480 | 2080 | 1680 | 1570 | 1710 | 1710 | 1490 | 1690 | 1800 |
